Experimental data taken from ChEMBL document CHEMBL1201862, “PubChem BioAssay data set” (2004).
The source made the active and inactive calls.

How the values were obtained:
Caspase-3 = target: T1, Caspase-3 (Homo sapiens, UniProt P42574); assay: procaspase-3 activators, dose response, biochemical, absorbance (AID 489014)
T1 sequence (P42574 whole entry): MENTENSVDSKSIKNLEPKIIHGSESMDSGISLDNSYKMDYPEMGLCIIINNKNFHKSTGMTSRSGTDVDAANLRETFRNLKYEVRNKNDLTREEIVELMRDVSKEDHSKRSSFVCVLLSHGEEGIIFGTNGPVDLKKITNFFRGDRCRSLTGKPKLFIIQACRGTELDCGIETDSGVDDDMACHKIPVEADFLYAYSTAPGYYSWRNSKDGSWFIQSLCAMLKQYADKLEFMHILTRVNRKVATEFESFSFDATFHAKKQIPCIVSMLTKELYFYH

Caspase-7 = Caspase-7 (Homo sapiens, UniProt P55210); assay: procaspase-7 activators, dose response, counter-screen for procaspase-3 activator project, biochemical, absorbance (AID 489013)
[1] = target: T2, Histone-lysine N-methyltransferase NSD2 (Homo sapiens, UniProt O96028); assay type: biochemical
T2 sequence (O96028 whole entry): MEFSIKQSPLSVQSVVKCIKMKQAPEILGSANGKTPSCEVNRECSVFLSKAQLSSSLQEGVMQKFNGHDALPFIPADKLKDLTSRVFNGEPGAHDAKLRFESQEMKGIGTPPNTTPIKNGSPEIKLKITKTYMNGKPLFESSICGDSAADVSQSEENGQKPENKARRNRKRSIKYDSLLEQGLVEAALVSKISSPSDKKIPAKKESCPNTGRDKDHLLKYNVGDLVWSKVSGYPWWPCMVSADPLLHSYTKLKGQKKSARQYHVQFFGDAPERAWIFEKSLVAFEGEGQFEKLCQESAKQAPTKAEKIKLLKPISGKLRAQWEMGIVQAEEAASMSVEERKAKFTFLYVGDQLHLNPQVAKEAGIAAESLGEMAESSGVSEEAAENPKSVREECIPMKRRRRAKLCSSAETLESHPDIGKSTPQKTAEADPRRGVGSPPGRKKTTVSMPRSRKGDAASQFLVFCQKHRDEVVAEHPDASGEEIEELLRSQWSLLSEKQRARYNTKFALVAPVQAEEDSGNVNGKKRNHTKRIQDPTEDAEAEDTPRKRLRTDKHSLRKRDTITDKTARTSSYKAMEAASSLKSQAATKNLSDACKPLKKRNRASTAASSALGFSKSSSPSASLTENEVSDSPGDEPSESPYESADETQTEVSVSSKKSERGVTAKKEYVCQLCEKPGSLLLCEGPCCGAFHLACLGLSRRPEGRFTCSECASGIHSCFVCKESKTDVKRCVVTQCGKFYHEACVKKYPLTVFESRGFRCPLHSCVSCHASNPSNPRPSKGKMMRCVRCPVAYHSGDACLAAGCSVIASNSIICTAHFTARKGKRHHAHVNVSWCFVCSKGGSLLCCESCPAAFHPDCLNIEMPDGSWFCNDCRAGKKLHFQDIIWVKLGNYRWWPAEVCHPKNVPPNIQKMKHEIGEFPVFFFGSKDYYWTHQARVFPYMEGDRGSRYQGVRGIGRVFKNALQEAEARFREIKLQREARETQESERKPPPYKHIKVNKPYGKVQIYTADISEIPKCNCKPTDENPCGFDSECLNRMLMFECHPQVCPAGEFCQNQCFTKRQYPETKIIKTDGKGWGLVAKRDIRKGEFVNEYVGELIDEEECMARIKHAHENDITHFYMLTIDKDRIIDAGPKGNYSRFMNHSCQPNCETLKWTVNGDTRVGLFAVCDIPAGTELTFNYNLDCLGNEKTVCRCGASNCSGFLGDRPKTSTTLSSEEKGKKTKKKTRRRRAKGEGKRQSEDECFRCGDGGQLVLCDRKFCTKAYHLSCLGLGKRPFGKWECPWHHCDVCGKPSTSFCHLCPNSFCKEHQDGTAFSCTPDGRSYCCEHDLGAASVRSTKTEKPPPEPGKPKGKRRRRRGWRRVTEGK

Troponin, cardiac muscle = Troponin, cardiac muscle (Homo sapiens, UniProt P19429+P45379+P63316); assay: inhibitors of cardiac thin filament calcium sensitivity, dose response, biochemical, fluorescence, cardiac regulated thin filaments, triplicate IC50 (AID 504742); assay type: protein-complex assay
[2] = target: T3, Kappa-type opioid receptor (Homo sapiens, UniProt P41145); assay: SAR analysis of Antagonists of the Kappa Opioid Receptor (KOR) using an Image-Based Assay - Set 4. [Related pubchem assays (depositor defined):AID1777, AID1785]; assay type: functional
[3] = target: T3, Kappa-type opioid receptor; assay: SAR analysis of small molecule antagonists of the kappa opioid receptor via a luminescent beta-arrestin assay - Set 4. [Related pubchem assays (depositor defined):AID1777, AID1778, AID1785, AID1786, AID1966, AID2133, AID2136, AID2285]; assay type: functional
[4] = target: T3, Kappa-type opioid receptor; assay: SAR analysis of small molecule antagonists of the kappa opioid receptor via a luminescent beta-arrestin assay - Set 6. [Related pubchem assays (depositor defined):AID1777, AID1778, AID1785, AID1786, AID1966, AID2133, AID2136, AID2285]; assay type: functional
Mu-type opioid receptor = Mu-type opioid receptor (Homo sapiens, UniProt P35372); assay: SAR Analysis of Antagonists of the MOR Receptor using an Image-Based Assay - Set 3. [Related pubchem assays (depositor defined):AID1777, AID1785, AID1786, AID1966, AID2133, AID2136, AID2284, AID2285, AID2420]; assay type: functional
[5] = target: Delta-type opioid receptor (Homo sapiens, UniProt P41143); assay: SAR Analysis of Antagonists of the DOR Receptor using an Image-Based Assay - Set 3. [Related pubchem assays (depositor defined):AID1777, AID1785]; assay type: functional;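 also: U2OS cells expressing DOR1 and beta-arrestin GFP stimulated with 100 nM SNC80; imaging of GFP-tagged beta-arrestin moving into spots after receptor activation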
[6] = THP-1 cell cytotoxicity, dose response, cytotoxicity control for Vif-APOBEC3G degradation inhibitor project, THP-1 cells (AID 1117359); assay type: functional; conditions: Human immunodeficiency virus 1, THP-1
[7] = target: T4, Apoptotic protease-activating factor 1 (Homo sapiens, UniProt O14727); assay type: functional
T4 sequence (O14727 whole entry): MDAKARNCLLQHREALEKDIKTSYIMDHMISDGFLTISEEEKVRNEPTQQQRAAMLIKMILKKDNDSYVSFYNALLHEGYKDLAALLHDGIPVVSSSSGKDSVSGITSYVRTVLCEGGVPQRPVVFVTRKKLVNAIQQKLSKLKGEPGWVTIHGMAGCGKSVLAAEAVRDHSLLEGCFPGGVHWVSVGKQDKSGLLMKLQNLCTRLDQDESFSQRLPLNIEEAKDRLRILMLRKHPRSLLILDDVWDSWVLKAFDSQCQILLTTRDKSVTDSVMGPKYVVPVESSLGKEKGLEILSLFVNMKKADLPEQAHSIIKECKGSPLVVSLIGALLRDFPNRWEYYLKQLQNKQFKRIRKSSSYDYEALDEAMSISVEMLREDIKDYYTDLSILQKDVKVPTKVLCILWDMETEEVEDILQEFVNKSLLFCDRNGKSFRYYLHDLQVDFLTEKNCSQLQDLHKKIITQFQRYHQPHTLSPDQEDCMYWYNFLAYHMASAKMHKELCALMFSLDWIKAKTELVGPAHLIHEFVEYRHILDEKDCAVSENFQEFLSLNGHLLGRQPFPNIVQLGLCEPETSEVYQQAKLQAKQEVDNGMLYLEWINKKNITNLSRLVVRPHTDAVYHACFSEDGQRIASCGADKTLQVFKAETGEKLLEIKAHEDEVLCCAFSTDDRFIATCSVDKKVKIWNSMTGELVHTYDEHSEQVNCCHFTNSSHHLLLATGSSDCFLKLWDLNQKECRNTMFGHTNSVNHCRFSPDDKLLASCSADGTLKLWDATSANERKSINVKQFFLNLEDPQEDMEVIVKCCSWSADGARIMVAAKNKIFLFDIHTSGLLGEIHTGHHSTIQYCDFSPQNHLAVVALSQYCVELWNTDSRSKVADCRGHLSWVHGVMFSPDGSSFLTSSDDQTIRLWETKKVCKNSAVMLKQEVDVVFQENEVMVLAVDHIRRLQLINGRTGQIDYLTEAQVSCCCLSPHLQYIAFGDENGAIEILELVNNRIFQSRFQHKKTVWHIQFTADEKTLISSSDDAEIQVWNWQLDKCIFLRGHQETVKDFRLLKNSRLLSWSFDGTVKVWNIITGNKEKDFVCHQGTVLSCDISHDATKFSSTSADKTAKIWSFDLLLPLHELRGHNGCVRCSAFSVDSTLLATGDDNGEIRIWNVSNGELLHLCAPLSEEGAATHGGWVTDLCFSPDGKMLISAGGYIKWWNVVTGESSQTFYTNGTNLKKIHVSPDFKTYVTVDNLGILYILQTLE

Beta-galactosidase = Beta-galactosidase (Escherichia coli, UniProt Q8VNN2); assay: beta-galactosidase enzyme inhibitors and activators, dose response, artefact control for CCR6 antagonist project, biochemical, E. coli enzyme, set 3 (AID 504712); assay type: functional
[8] = target: 1-phosphatidylinositol 4,5-bisphosphate phosphodiesterase gamma-1 (Homo sapiens, UniProt P19174); assay: Counterscreen for inhibitors of phospholipase C isozymes (PLC-B3): Fluorescence-based biochemical high throughput dose response assay to identify inhibitors of phospholipase C isozymes (PLC-gamma1).
[9] = target: C-C chemokine receptor type 6 (Homo sapiens, UniProt P51684); assay: CCR6 receptor antagonists, dose response, cell-based, luminescent beta-arrestin readout (AID 504728); assay type: functional
[10] = target: 1-phosphatidylinositol 4,5-bisphosphate phosphodiesterase beta-3 (Homo sapiens, UniProt Q01970); assay: Fluorescence-based biochemical high throughput dose response assay to identify inhibitors of phospholipase C isozymes (PLC-B3).
[11] = test system: Streptococcus sp. 'group A'; assay: growth inhibition of control SK(-) GAS strain, dose response, counter-screen for streptokinase expression inhibitor project, luminescence, kanamycin, BacTiterGlo, confirmation (AID 1900); assay type: functional, organism-based
Streptococcus = assay: Group A Streptococcus viability loss, dose response, counter-screen for streptokinase expression inhibitor project, luminescence, BacTiterGlo (AID 1915); assay type: functional, organism-based;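 also: potency for reduction of bacterial viability or growth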
[12] = target: DNA dC->dU-editing enzyme APOBEC-3A (Homo sapiens, UniProt P31941); assay: APOBEC3A DNA deaminase inhibitors, dose response, biochemical (AID 504722); assay type: functional
[13] = target: DNA dC->dU-editing enzyme APOBEC-3G (Homo sapiens, UniProt Q9HC16); assay: Dose Response confirmation of small molecule APOBEC3G DNA Deaminase Inhibitors via a fluorescence-based single-stranded DNA deaminase assay. [Related pubchem assays (depositor defined):AID493012, AID493028]; assay type: functional
Streptokinase A = target: T5, Streptokinase A (Streptococcus pyogenes serotype M1, UniProt P10520); assay: S. pyogenes streptokinase expression inhibitors, potency, dose response, plasminogen activation absorbance, OD405 (AID 1914); assay type: functional, Streptococcus pyogenes M1 GAS;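 also: secreted streptokinase activity via plasminogen activation per viability signal from cell pellet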
T5 sequence (P10520 whole entry): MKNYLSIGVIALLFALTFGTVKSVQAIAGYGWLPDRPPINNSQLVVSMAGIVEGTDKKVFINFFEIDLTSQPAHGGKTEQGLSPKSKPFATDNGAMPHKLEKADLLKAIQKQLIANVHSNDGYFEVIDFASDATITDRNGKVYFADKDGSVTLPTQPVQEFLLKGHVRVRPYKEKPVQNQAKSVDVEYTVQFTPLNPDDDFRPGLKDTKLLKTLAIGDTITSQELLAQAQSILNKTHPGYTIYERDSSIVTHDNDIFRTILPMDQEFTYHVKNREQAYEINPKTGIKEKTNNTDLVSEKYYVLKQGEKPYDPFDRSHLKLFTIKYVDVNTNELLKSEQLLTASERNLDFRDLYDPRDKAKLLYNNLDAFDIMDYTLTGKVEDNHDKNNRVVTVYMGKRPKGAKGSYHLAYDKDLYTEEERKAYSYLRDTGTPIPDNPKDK

T3 sequence (P41145 whole entry): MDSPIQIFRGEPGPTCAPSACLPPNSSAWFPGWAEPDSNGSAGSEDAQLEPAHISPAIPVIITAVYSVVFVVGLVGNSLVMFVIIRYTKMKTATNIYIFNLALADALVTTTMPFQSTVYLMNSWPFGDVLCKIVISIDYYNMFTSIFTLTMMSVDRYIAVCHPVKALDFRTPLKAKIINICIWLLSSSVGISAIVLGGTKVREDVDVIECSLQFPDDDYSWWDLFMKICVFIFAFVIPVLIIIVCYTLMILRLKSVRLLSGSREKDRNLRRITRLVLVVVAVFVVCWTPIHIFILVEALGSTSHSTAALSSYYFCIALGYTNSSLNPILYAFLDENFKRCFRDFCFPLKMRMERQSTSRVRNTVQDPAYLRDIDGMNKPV
Beta-galactosidase, sequence (Q8VNN2 whole entry): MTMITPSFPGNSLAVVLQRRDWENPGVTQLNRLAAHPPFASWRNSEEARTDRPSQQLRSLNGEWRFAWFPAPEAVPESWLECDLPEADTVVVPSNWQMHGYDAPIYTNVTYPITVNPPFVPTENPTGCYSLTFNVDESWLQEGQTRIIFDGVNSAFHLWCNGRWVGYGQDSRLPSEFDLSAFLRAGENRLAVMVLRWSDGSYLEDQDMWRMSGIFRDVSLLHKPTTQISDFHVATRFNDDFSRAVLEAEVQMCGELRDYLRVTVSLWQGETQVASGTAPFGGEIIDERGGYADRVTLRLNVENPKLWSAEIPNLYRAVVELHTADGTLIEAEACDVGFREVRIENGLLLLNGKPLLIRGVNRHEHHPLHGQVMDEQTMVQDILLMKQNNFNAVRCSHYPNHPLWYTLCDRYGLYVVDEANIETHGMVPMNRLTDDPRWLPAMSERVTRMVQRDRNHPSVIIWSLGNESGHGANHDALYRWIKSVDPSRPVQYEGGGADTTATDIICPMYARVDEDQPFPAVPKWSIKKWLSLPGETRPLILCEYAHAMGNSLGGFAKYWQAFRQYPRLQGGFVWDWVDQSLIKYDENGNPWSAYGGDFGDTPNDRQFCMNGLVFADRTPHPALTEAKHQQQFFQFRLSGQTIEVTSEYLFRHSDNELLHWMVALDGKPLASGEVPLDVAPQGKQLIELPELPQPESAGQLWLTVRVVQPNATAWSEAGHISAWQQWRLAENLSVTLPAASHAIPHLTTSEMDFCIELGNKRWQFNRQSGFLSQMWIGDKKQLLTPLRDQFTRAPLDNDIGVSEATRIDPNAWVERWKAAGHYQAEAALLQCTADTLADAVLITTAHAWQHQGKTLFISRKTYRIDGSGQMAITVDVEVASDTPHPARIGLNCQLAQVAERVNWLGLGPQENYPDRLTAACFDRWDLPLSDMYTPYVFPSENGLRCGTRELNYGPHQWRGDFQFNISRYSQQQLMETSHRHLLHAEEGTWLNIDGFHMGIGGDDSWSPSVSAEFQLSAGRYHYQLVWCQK
Caspase-7, sequence (P55210 24-198 limits assumed): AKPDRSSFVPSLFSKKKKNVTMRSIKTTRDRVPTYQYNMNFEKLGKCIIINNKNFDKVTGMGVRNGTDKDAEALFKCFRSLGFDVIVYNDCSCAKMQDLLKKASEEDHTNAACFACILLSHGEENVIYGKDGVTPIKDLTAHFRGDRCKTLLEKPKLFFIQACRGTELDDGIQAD
Caspase-7, sequence (P55210 207-303 limits assumed): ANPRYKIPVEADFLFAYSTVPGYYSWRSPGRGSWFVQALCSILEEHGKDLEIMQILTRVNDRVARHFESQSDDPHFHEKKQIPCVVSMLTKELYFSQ
C-C chemokine receptor type 6, sequence (P51684 whole entry): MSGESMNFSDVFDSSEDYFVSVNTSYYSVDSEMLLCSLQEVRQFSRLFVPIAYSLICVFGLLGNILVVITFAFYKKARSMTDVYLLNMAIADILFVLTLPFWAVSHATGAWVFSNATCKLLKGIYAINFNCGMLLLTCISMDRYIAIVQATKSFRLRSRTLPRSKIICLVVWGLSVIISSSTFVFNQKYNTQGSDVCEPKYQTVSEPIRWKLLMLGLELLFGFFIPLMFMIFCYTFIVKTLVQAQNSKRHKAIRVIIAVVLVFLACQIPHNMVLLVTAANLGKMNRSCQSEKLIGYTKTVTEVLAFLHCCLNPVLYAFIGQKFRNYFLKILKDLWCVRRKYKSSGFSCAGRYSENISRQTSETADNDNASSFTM
1-phosphatidylinositol 4,5-bisphosphate phosphodiesterase beta-3, sequence (Q01970 whole entry): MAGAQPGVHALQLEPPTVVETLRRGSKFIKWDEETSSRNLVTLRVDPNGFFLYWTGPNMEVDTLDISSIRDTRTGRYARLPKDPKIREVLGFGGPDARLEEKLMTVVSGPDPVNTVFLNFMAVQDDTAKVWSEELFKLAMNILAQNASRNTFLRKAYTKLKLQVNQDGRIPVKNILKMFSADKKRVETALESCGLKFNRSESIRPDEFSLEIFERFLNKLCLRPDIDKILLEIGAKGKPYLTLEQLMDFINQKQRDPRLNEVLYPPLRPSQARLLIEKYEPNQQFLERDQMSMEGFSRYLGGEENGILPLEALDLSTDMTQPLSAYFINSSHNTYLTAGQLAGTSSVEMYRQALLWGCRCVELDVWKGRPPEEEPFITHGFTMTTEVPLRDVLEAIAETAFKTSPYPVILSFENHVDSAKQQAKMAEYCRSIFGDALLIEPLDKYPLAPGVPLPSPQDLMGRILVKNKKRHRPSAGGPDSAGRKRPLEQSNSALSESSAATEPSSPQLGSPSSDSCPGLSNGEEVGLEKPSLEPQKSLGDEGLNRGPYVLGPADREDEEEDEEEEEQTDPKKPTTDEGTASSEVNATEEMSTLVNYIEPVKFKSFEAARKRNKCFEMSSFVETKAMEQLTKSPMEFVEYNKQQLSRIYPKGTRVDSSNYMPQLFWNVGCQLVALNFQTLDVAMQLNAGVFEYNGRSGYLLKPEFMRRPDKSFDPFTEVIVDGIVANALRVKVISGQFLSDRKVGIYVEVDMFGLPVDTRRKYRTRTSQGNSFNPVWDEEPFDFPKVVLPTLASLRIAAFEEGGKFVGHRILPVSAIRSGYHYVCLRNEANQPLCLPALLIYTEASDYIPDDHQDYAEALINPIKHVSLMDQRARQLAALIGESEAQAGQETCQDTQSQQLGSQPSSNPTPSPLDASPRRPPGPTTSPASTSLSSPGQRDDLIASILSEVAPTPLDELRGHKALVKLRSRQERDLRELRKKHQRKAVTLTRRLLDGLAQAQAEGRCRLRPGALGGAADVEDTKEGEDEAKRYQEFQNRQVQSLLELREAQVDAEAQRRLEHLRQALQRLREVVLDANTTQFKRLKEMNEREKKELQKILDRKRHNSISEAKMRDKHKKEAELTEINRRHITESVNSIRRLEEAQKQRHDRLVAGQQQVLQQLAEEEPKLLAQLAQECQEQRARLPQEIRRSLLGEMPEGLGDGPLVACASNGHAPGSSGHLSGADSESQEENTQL
DNA dC->dU-editing enzyme APOBEC-3G, sequence (Q9HC16 whole entry): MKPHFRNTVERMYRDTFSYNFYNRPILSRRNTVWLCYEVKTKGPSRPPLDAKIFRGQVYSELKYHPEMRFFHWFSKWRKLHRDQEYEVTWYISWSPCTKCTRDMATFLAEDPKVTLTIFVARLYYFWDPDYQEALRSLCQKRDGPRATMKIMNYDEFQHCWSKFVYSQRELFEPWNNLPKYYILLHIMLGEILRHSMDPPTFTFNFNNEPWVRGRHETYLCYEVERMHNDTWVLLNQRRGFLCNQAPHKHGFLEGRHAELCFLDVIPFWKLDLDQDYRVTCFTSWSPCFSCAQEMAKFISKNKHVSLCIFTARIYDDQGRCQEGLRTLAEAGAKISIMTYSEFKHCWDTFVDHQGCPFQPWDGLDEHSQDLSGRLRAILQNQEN
Mu-type opioid receptor, sequence (P35372 whole entry): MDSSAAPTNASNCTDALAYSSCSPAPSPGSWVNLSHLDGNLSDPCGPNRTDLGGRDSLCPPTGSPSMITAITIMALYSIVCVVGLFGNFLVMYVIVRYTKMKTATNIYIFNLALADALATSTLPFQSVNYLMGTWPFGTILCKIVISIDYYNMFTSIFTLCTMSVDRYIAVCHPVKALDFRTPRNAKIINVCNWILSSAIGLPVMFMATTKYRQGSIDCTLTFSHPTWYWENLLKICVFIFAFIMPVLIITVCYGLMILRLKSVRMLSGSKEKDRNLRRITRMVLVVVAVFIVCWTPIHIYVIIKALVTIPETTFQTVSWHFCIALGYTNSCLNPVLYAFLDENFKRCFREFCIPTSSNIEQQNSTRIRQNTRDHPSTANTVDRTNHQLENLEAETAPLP
Delta-type opioid receptor, sequence (P41143 whole entry): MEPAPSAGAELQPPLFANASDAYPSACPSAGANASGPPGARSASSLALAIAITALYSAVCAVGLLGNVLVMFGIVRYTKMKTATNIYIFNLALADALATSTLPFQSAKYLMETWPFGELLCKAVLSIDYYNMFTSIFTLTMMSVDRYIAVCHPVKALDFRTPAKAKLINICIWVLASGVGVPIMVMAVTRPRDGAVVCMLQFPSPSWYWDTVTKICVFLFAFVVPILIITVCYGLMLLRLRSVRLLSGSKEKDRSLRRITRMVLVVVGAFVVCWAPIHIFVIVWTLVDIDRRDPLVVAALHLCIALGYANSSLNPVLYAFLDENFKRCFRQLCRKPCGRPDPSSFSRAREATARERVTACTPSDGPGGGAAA
DNA dC->dU-editing enzyme APOBEC-3A, sequence (P31941 whole entry): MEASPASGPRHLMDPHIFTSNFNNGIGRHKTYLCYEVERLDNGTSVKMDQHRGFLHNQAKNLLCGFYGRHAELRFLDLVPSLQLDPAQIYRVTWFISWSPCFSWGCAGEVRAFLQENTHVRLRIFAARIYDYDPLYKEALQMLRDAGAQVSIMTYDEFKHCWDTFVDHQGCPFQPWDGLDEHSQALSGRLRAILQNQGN

**Q.** What does the source list for `Cc1ccc(C2Nc3ccc4ccccc4c3C3=C2C(=O)CC(C)(C)C3)o1` (stereo not given)?
**A.** EC50 (Caspase-3): > 85.3 µM (inactive); EC50 (Caspase-7): > 85.3 µM (inactive)

**Q.** With `CCOc1ccc2nc3cc(N=Nc4ccc(N)nc4N)ccc3c(N)c2c1` as the compound, how does the AC50 [1] read?
**A.** > 20 µM (inactive)

**Q.** What about the IC50 (Troponin, cardiac muscle) of the same compound?
**A.** 12.7 µM (inactive)

**Q.** Which IC50 [2] does the source give for `Cc1ccc(S(=O)(=O)NCc2ccc(C(=O)NCCN(Cc3ccccc3)C(C)(C)C)cc2)cc1` here?
**A.** 0.0287 µM (active)

**Q.** And the IC50 [3]?
**A.** 0.0763 µM (active)

**Q.** What about the IC50 [4] of the same compound?
**A.** 0.0535 µM (active)

**Q.** What about the IC50 (Mu-type opioid receptor) of the same compound?
**A.** 1.39 µM (active)

**Q.** What about the IC50 [5] of the same compound?
**A.** > 32 µM (inactive)

**Q.** What does the source list for `FC(F)(F)C1=Nc2cccc3cccc(c23)N1`?
**A.** CC50 [6]: 11.5 µM (active); IC50 [7]: 12.1 µM (active); IC50 (Beta-galactosidase): > 66.6 µM (inactive); IC50 [8]: 56.6 µM (inactive); IC50 [9]: 23.8 µM (inactive); IC50 [10]: 102 µM (inactive)

**Q.** What does the source list for `COc1ccc(OC)c(/C=N/n2c(S)nnc2-c2[nH]nc3c2CCC3)c1`?
**A.** EC50 [11]: > 150 µM (not active); EC50 (Streptococcus): > 150 µM (not active); IC50 [12]: > 100 µM (inactive); IC50 [13]: 2.88 µM (active); EC50 (Streptokinase A): 18.9 µM (inconclusive)
